Experimental data from the NIST ThermoML archive (doi:10.1021/acs.jced.7b00971).

Key:
[1] = xn = mol fraction of the nth substance listed; details: 101 kPa, Liquid, Capillary tube (Ostwald / Ubbelohde) method
[2] = 101 kPa, Liquid, Capillary tube (Ostwald / Ubbelohde) method

CO [methanol] + Cc1ccc(C)cc1
[1], x1 = 1
Details	viscosity [mPa·s]
303.15 K	0.513
308.15 K	0.48
313.15 K	0.45
318.15 K	0.422
323.15 K	0.397

CO [methanol]
[2]
Details	viscosity [mPa·s]
303.15 K	0.513
308.15 K	0.48
313.15 K	0.45
318.15 K	0.422
323.15 K	0.397

Cc1ccccc1C [1,2-dimethylbenzene]
[2]
Details	viscosity [mPa·s]
303.15 K	0.71
308.15 K	0.666
313.15 K	0.628
318.15 K	0.591
323.15 K	0.56

Cc1ccc(C)cc1 [1,4-dimethylbenzene]
[2]
Details	viscosity [mPa·s]
303.15 K	0.574
308.15 K	0.542
313.15 K	0.514
318.15 K	0.486
323.15 K	0.461

Cc1cccc(C)c1 [1,3-dimethylbenzene]
[2]
Details	viscosity [mPa·s]
303.15 K	0.554
308.15 K	0.524
313.15 K	0.498
318.15 K	0.472
323.15 K	0.452

Cc1cccc(C)c1 [1,3-dimethylbenzene] + CO
viscosity [mPa·s], [1]
Details	x2 = 0	x2 = 0.1008	x2 = 0.2003	x2 = 0.2999	x2 = 0.4	x2 = 0.4997	x2 = 0.6003	x2 = 0.7001	x2 = 0.8001	x2 = 0.9012
303.15 K	0.554	0.539	0.542	0.548	0.553	0.56	0.566	0.57	0.565	0.546
308.15 K	0.524	0.51	0.51	0.514	0.519	0.526	0.53	0.532	0.526	0.509
313.15 K	0.498	0.483	0.483	0.485	0.488	0.493	0.496	0.497	0.492	0.477
318.15 K	0.472	0.456	0.456	0.457	0.46	0.462	0.465	0.466	0.46	0.445
323.15 K	0.452	0.435	0.433	0.433	0.434	0.437	0.437	0.437	0.432	0.419

CO [methanol] + Cc1ccccc1C
[1], x1 = 1
Details	viscosity [mPa·s]
303.15 K	0.513
308.15 K	0.48
313.15 K	0.45
318.15 K	0.422
323.15 K	0.397
